The experiment deals with T1, TNK1 kinase (Homo sapiens, UniProt Q13470).
T1 sequence (Q13470 1-666): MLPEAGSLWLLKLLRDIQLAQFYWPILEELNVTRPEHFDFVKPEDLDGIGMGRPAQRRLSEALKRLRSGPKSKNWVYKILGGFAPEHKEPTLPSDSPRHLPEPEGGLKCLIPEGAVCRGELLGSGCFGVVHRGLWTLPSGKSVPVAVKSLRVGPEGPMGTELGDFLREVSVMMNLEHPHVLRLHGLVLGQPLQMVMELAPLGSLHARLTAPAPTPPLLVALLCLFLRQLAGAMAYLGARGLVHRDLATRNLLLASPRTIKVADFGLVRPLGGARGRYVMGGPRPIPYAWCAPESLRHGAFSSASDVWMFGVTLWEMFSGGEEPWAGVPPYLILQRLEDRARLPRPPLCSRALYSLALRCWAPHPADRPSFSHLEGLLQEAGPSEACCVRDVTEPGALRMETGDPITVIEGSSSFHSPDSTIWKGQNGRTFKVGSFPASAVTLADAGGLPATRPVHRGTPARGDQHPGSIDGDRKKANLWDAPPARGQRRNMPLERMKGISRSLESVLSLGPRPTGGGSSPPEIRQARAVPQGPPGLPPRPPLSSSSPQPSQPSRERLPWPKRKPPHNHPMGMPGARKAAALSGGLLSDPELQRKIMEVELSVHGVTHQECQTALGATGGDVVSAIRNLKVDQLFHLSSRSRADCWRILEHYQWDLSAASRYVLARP
Nature of the experiment: TNK1 kinase activity inhibition assay (ADP-Glo). The experiment is classed as biochemical. How it is done: Measure compound inhibitory activity against TNK1 kinase using ADP-Glo Assay. 1× kinase reaction buffer was prepared (working concentrations: HEPES 50 mM, MgCl2 10 mM, Brij35 0.01%, EGTA 1 mM, DTT 2 mM). 2× kinase and 4× substrate buffers were prepared with the following working concentrations: For TNK1 kinase: kinase solution at 5 nM; substrate mixture containing ATP at 45 µM and MBP substrate at 0.1 mg/ mL. For ULK2 kinase: kinase solution at 0.15 nM; substrate mixture containing ATP at 6 µM and MBP substrate at 0.1 mg/mL. Compounds were serially diluted in DMSO and shaken on an orbital shaker for 20 minutes. 2× kinase solution was prepared using 1× kinase reaction buffer. 20 nL of compound solution was transferred to a 384-well plate. 2 µL of kinase solution was added to each well of the reaction plate. The plate was sealed with adhesive film, centrifuged at 1000 rpm for 60 seconds, and incubated at 25°C for 10 minutes. 2× ATP&MBP mixture was prepared using 1× kinase reaction buffer. 2 µL of 2× ATP&substrate mixture was added to the reaction plate. The plate was sealed with adhesive film, centrifuged at 1000 rpm for 60 seconds, and incubated at 25°C for 60 minutes. 4 µL of ADP-Glo reagent was transferred to the 384-well reaction plate, centrifuged at 1000 rpm for 1 minute, and incubated at 25°C for 40 minutes. 8 µL of Detection solution was transferred to the 384-well reaction plate, centrifuged at 1000 rpm for 1 minute, and incubated at 25°C for 40 minutes. Relative luminescence units (RLU) were measured using a BMG microplate reader, with signal intensity representing kinase activity level. The inhibition percentage was calculated as follows: % inhibition = 100% - [(Compound RLU - Positive Control RLU)/(Negative Control RLU - Positive Control RLU)] × 100%. The IC50 values (half-maximal inhibitory concentration) of compounds were determined by fitting the data to the following nonlinear regression equation using GraphPad Prism 7.0 software: Y = Bottom + (Top - Bottom)/(1 + 10^((LogIC50 - X) × Hill Slope)), where: X = log(compound concentration), Y = % inhibition. Table1: Inhibitory activity of compounds against ULK (IC50, nM)
(In general: ADP-Glo first removes unused ATP, then detects ADP through luciferase.)

The source of these data is EP4653444A1, “FUSED TRICYCLIC COMPOUND AS KINASE INHIBITOR” (Hangzhou Innogate Pharma Co., Ltd., priority 2023, dated 2024).

Molecule `CNC(=O)c1ccccc1Nc1cc(Nc2cc3c(cc2OC)N2CCN(C4CCN(C)CC4)C[C@H]2CO3)ncc1C(F)(F)F` [Compound D2S] registered an IC50 of less than 10 nM.

The IC50 is the concentration needed to halve the response being measured. A low value points to greater potency.
